Experimental data: patent EP4737449A1 (Changchun Genescience Pharmaceutical Co., Ltd., priority 2023, dated 2025)
Where two headings read alike, the source gives them in different places.

Assays:
NUGC-3 cells = test: NUGC-3 cell proliferation assay (CTG, 7 days); assay type: cell-based, human
Procedure: The cells were cultured in strict accordance with ATCC requirements.
Cell culture medium: 1640 culture medium, 10% serum, 1% penicillin + streptomycin.
Culture conditions: 37°C, 95% air, 5% carbon dioxide.
Compounds (20 mM) were subjected to gradient dilution in DMSO: 10 gradients, 3-fold dilution, duplicate wells.
Positive and negative controls (100% dimethyl sulfoxide) were prepared.
The compounds that were gradient diluted with DMSO and positive and negative controls (1st and 2nd step), each 75 nL, were transferred to 384-well cell culture plates by Echo550.
The cells were washed twice with PBS, digested with trypsin, and centrifuged for cell counting.
The experiment can only be carried out when the cell viability is above 90%.
The cells were plated into 384-well cell culture plates, with 200 (NUGC-3) cells and 30 µL of culture medium per well.
The 384-well microplate was placed in a cell culture incubator for 7 days.
30 µL of CTG detection reagent was added to the 384-well microplate.
The 384-well microplate was incubated for 30 min at 37°C, 5% carbon dioxide in the dark.
The reading was performed by a multi-functional microplate reader Envision.
% Inhibition is calculated as follows: % Inhibition = 100−(Signalcmpd−SignalAve_BL)/(SignalAve_VC−SignalAve_BL)*100 [formula] • Signalcmpd: Average signal of the compound in the cell plate • Signalave_vc: Average signal of the negative control in the cell plate • Signalave_BL: Average signal of the blank wells in the cell plate
IC50 was calculated by fitting % inhibition and compound concentration logarithmically to a nonlinear regression (dose response - variable slope) using Graphpad 8.0. Table 2 IC50 of selected compounds in NUGC-3 cell proliferation assay

p53-Y220C mutant protein = biological target: T1, p53-Y220C mutant protein (Homo sapiens, UniProt P04637, Y220C); test: In vitro DNA binding activity assay (TR-FRET); assay type: biochemical; conditions: concentration required to increase the binding activity of protein to DNA by 50%
T1 construct: The recombinant Y220C p53 DBD protein with his-tag
In short: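 His-tagged Y220C p53 DBD was equilibrated with compound 60 min at room temperature, then biotin-DNA, anti-6His-Eu and streptavidin-d2 were added and incubated overnight in the dark. TR-FRET 665/615 nm ratio, background-corrected, was expressed as % activity versus vehicle; SC150 is the concentration raising DNA binding by 50%.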

[1] = NUGC-3 cell proliferation, 7 days, CTG, read-out: IC50
[2] = Homo sapiens, NUGC-3, 168 h, NUGC-3 cell proliferation, 7 days, CTG, read-out: IC50

SC150 (p53-Y220C mutant protein)	SMILES	IC50 (NUGC-3 cells; [1])	IC50 (NUGC-3 cells; [2])	IC50 (NUGC-3 cells; Homo sapiens, NUGC-3, 168 h)
3 nM	CC(C1CC1)n1ncc(C(=O)NCC#Cc2nn3c(N[C@@H]4CCN(C)C[C@@H]4F)cccc3c2CC(F)(F)F)c1N (single isomer, unassigned) [Compound 291A]	166 nM	–	–
4 nM	CC(C1CC1)n1ncc(C(=O)NCC#Cc2nn3c(N[C@@H]4CCN(C)C[C@@H]4F)cccc3c2CC(F)(F)F)c1N (single isomer, unassigned) [Compound 291B]	162 nM	–	–
2 nM	CN(C)C1CC[C@@H](Nc2cccc3c(CC(F)(F)F)c(C#CCNC(=O)c4cnn(C(C)(C)C)c4N)nn23)[C@@H](F)C1 (single isomer, unassigned) [Compound 358-A]	–	123 nM	–
51 nM	CN1CC[C@@H](Nc2cccc3c(CC(F)(F)F)c(C#CCNC(=O)c4cccnc4)nn23)[C@@H](F)C1 [Compound 074, N-[3-(7-{[(3S,4R)-3-fluoro-1-methylpiperidin-4-yl]amino}-3-(2,2,2-trifluoroethyl)pyrazolo[1,5-a]pyridin-2-yl)prop-2-yn-1-yl]nicotinamide]	–	1860 nM	–
20 nM	CN1CC[C@@H](Nc2cccc3c(CC(F)(F)F)c(C#CCNC(=O)c4cn(C(C)(C)C)cn4)nn23)[C@@H](F)C1 [Compound 082, 1-tert-butyl-N-[3-(7-{[(3S,4R)-3-fluoro-1-methylpiperidin-4-yl]amino}-3-(2,2,2-trifluoroethyl)pyrazolo[1,5-a]pyridin-2-yl)prop-2-yn-1-yl]-1H-imidazole-4-carboxamide]	–	1090 nM	–
19 nM	CN1CC[C@@H](Nc2cccc3c(CC(F)(F)F)c(C#CCNC(=O)c4cnn5c4CCC5)nn23)[C@@H](F)C1 [Compound 231, N-[3-(7-{[(3S,4R)-3-fluoro-1-methylpiperidin-4-yl]amino}-3-(2,2,2-trifluoroethyl)pyrazolo[1,5-a]pyridin-2-yl)prop-2-yn-1-yl]-5,6-dihydro-4H-pyrrolo[1,2-b]pyrazole-3-carboxamide]	–	724 nM	–
8 nM	CN1CC[C@@H](Nc2cccc3c(CC(F)(F)F)c(C#CCNC(=O)c4cnn(C(C)(C)CO)c4)nn23)[C@@H](F)C1 [Compound 232, N-[3-(7-{[(3S,4R)-3-fluoro-1-methylpiperidin-4-yl]amino}-3-(2,2,2-trifluoroethyl)pyrazolo[1,5-a]pyridin-2-yl)prop-2-yn-1-yl]-1-(1-hydroxy-2-methylprop-2-yl)-1H-pyrazole-4-carboxamide]	–	419 nM	–
12 nM	COCC(O)CN1CCC(Nc2cccc3c(CC(F)(F)F)c(C#CCNC(=O)c4cnn(C(C)(C)C)c4N)nn23)CC1 (stereo not shown) [Compound 371, 5-amino-1-tert-butyl-N-[3-(7-{[1-(2-hydroxy-3-methoxypropy)piperidin-4-yl]amino}-3-(2,2,2-trifluoroethyl)pyrazolo[1,5-a]pyridin-2-yl)prop-2-yn-1-yl]-1H-pyrazole-4-carboxamide]	–	–	–
18 nM	CC(C)(C)n1ncc(C(=O)NCC#Cc2nn3c(N[C@@H]4CCN(C5CC5)C[C@@H]4F)cccc3c2CC(F)(F)F)c1N [Compound 372, 5-amino-1-tert-butyl-N-(3-(7-{[(3S,4R)-1-cyclopropyl-3-fluoropiperidin-4-yl]amino}-3-(2,2,2-trifluoroethyl)pyrazolo[1,5-a]pyridin-2-yl)prop-2-yn-1-yl)-1H-pyrazole-4-carboxamide]	–	–	–

The next lines start with the compound.

SMILES	SC150 (p53-Y220C mutant protein)	IC50 (NUGC-3 cells; [1])	IC50 (NUGC-3 cells; [2])	IC50 (NUGC-3 cells; Homo sapiens, NUGC-3, 168 h)
CN1CC[C@@H](Nc2cccc3c(CC(F)(F)F)c(C#CCNC(=O)c4ccccc4)nn23)[C@@H](F)C1 [Compound 069, N-[3-(7-{[(3S,4R)-3-fluoro-1-methylpiperidin-4-yl]amino}-3-(2,2,2-trifluoroethyl)pyrazolo[1,5-a]pyridin-2-yl)prop-2-yn-1-yl]benzamide]	–	–	2850 nM	–
COc1ccc(C(=O)NCC#Cc2nn3c(N[C@@H]4CCN(C)C[C@@H]4F)cccc3c2CC(F)(F)F)cc1 [Compound 070, N-[3-(7-{[(3S,4R)-3-fluoro-1-methylpiperidin-4-yl]amino}-3-(2,2,2-trifluoroethyl)pyrazolo[1,5-a]pyridin-2-yl)prop-2-yn-1-yl]-4-methoxybenzamide]	–	–	3320 nM	–
COc1ccccc1C(=O)NCC#Cc1nn2c(N[C@@H]3CCN(C)C[C@@H]3F)cccc2c1CC(F)(F)F [Compound 071, N-[3-(7-{[(3S,4R)-3-fluoro-1-methylpiperidin-4-yl]amino}-3-(2,2,2-trifluoroethyl)pyrazolo[1,5-a]pyridin-2-yl)prop-2-yn-1-yl]-2-methoxybenzamide]	–	–	4560 nM	–
CN1CC[C@@H](Nc2cccc3c(CC(F)(F)F)c(C#CCNC(=O)c4csc(C(C)(C)C)n4)nn23)[C@@H](F)C1 [Compound 088, 2-tert-butyl-N-[3-(7-{[(3S,4R)-3-fluoro-1-methylpiperidin-4-yl]amino}-3-(2,2,2-trifluoroethyl)pyrazolo[1,5-a]pyridin-2-yl)prop-2-yn-1-yl]-1,3-thiazole-4-carboxamide]	–	–	7110 nM	–
CN1CC[C@@H](Nc2cccc3c(CC(F)(F)F)c(C#CCNC(=O)c4cnc(C(C)(C)C)s4)nn23)[C@@H](F)C1 [Compound 089, 2-tert-butyl-N-[3-(7-{[(3S,4R)-3-fluoro-1-methylpiperidin-4-yl]amino}-3-(2,2,2-trifluoroethyl)pyrazolo[1,5-a]pyridin-2-yl)prop-2-yn-1-yl]-1,3-thiazole-5-carboxamide]	–	–	8060 nM	–
CN1CC[C@@H](Nc2cccc3c(CC(F)(F)F)c(C#CCNC(=O)c4coc(C(C)(C)C)n4)nn23)[C@@H](F)C1 [Compound 090, 2-tert-butyl-N-[3-(7-{[(3S,4R)-3-fluoro-1-methylpiperidin-4-yl]amino}-3-(2,2,2-trifluoroethyl)pyrazolo[1,5-a]pyridin-2-yl)prop-2-yn-1-yl]-1,3-oxazole-4-carboxamide]	–	–	6870 nM	–
CN1CC[C@@H](Nc2cccc3c(CC(F)(F)F)c(C#CCNC(=O)C4CC4)nn23)[C@@H](F)C1 [Compound 135, N-[3-(7-{[(3S,4R)-3-fluoro-1-methylpiperidin-4-yl]amino}-3-(2,2,2-trifluoroethyl)pyrazolo[1,5-a]pyridin-2-yl)prop-2-yn-1-yl]cycloproplycarboxamide]	22 nM	–	–	1670 nM
CN1CC[C@@H](Nc2cccc3c(CC(F)(F)F)c(C#CCNC(=O)c4ccc(C(C)(C)O)cc4)nn23)[C@@H](F)C1 [Compound 230, N-[3-(7-{[(3S,4R)-3-fluoro-1-methylpiperidin-4-yl]amino}-3-(2,2,2-trifluoroethyl)pyrazolo[1,5-a]pyridin-2-yl)prop-2-yn-1-yl]-4-(2-hydroxyprop-2-yl)benzamide]	29 nM	–	1060 nM	–
CCN1CC[C@@H](Nc2cccc3c(CC(F)(F)F)c(C#CCNC(=O)c4cnn(CC)c4N)nn23)[C@@H](F)C1 [Compound 364, 5-amino-1-ethyl-N-(3-(7-{[(3S,4R)-1-ethyl-3-fluoropiperidin-4-yl]amino}-3-(2,2,2-trifluoroethyl)pyrazolo[1,5-a]pyridin-2-yl)prop-2-yn-1-yl)-1H-pyrazole-4-carboxamide]	–	–	154 nM	–
CN1CCC(Nc2cccc3c(CC(F)(F)F)c(C#CCNC(=O)c4cnn(C(C)(C)C)c4N)nn23)CC1 [Compound 370, 5-amino-1-tert-butyl-N-(3-(7-[(1-methylpiperidin-4-yl)amino]-3-(2,2,2-trifluoroethyl)pyrazolo[1,5-a]pyridin-2-yl)prop-2-yn-1-yl)-1H-pyrazole-4-carboxamide]	9 nM	–	–	–
